Assays:
Type in all cases: cell-based
Conditions in all cases: 0.1 μM, 24 hours, human epidermal keratinocytes, n=2, vs control
[1] = test system: SPRR1A; experiment: Expression of transcripts in human keratinocytes (RT-qPCR): SPRR1A
Procedure: (§1) Human epidermal keratinocytes were seeded in a 24-well culture plate and cultured for 72 hours at 37° C. and 5% CO2 in culture medium with renewal of the culture medium after the first 24 hours. At the end of the incubation, the culture medium was replaced with assay medium (supplemented with 1.5 mM CaCl2) containing starting or reference material (retinoic acid) or not containing same (control), and cells were incubated for another 24 hours. All the experimental conditions were performed in n=2. At the end of the treatment, the cells were washed twice in PBS (without CaCl2, without MgCl2) and RNA extraction was carried out using TriPure Isolation Reagent® according to the manufacturer's recommendations. The relative expression of the selected markers was measured by two-step RT-qPCR. First, reverse transcription was performed with the aid of Transcriptor Reverse Transcriptase (Roche) according to the manufacturer's recommendations. Then, PCR experiments were performed using a LightCycler® 480 real-time PCR system with a SYBR®Green incorporation measurement system (Roche).

[2] = test system: TGM1; experiment: Expression of transcripts in human keratinocytes (RT-qPCR): TGM1
Procedure: as §1

[3] = test system: CNFN; experiment: Expression of transcripts in human keratinocytes (RT-qPCR): CNFN
Procedure: as §1

[4] = test system: CLDN1; experiment: Expression of transcripts in human keratinocytes (RT-qPCR): CLDN1
Procedure: as §1

[5] = test system: AQP3; experiment: Expression of transcripts in human keratinocytes (RT-qPCR): AQP3
Procedure: as §1

CC1=C(/C=C/C(C)=C/C=C/C(C)=C/C(=O)O)C(C)(C)CCC1 [Retinoic acid, retinoic acid]
relative expression of SPRR1A [1]: 0.26
relative expression of TGM1 [2]: 0.49
relative expression of CNFN [3]: 0.46
relative expression of CLDN1 [4]: 0.85
relative expression of AQP3 [5]: 1.04

— patent US20260157955A1, “DEDIFFERENTIATED PLANT CELLS OF THE GENUS PAEONIA, EXTRACTS THEREOF AND COSMETIC USES THEREOF” (L'OREAL, priority 2021, published 2026)
